We go through 2 compounds from patent publication US20250289850A1, “NOVEL ANTIMICROBIAL PEPTIDES AND METHODS OF USE THEREOF” (QATAR UNIVERSITY, priority 2024, published 2025).

In brackets after ≈: the same amount, converted by molar mass. Where two headings read alike, the source gives them in different places. Where a SMILES comes first, the peptide text is derived from it.

Data set [1] deals with MRSA (ATCC-33591). It is filed as cell-based, Methicillin-Resistant Staphylococcus Aureus. The protocol: (§1) MRSA and E. coli strains were acquired from the microbiology bacterial culture stock at the Biomedical Research Centre (BRC), Qatar University. MRSA (ATCC-33591) and E. coli (ATCC-29522) strains were cultivated overnight on nutrient agar (Remel, ThermoFisher Scientific, Lenexa, KS, USA), followed by a 24 hour period of incubation at 37° C. and adjustment to 0.5 MacFarland Standard, which was measured using DensiCHEK PLUS (bioMérieux, France).
(§2) Minimal Inhibitory Concentration (MIC) of AMP MRSA and E. coli was determined as follows. […] serial dilutions of AMP starting from 2000 μg/ml of 160 μL Mueller Hinton broth (MHB, Lioflchem, Roseto degli Abruzzi, Italy) were transferred to the wells (100 μl each) in a 96-well flat-bottom plate (Microtesttm 96 tissue culture plate, Franklin Lakes, NJ, USA) to get concentrations of 2000, 1000, 500, 250, 125, 62.5, 31.25, 15.6, and 7.8 μg/mL. Then, 10 μL of 0.5 MacFarland for each type (MSRA and/or E. coli) of the measured strain was added to each well. To assure sterilization, the 96-well plate contained wells with MHB control, MHB with AMP treatment control, and controls for the bacterial strain mixed with MHB to guarantee bacterial growth. 96-well plates were then sealed tightly with a parafilm and placed in an aerobic shaker (Innova 44 Incubator Shaker) for 24 hours at 37° C. at a speed of 100 rpm. After this, the MIC of the treatment that effectively eliminated bacterial growth was determined with the naked eye following previously established procedure as described in Eltai N O et al., Antibacterial and Antibiofilm Activity of Mercaptophenol Functionalized-Gold Nanorods Against a Clinical Isolate of Methicillin-Resistant Staphylococcus aureus. […]
(§3) To determine the minimum biocidal concentration ([…]) for the AMP, 20 μL of a ten-fold serial dilution of the MIC with AMP was spread onto fresh nutrient agar media and incubated at 37° C. for around 18 hrs. Bacterial colonies were counted and compared to those grown on control nutrient agar, which had 20 μL of a solution composed only of bacteria and MHB.

Data set [2] has as its system E. coli biofilm. The class given is cell-based, Escherichia coli. As for the experimental part: The first step in creating the biofilm was the selection of borosilicate glass beads 3-4 mm in diameter (ISOLAB Laborgeräte GmbH, Singapore). Then, the selected beads were soaked and cleaned with a soap solution; after that, they were washed with ddH2O, soaked in 80% ethanol for 24 hrs, and then washed properly using sterile water. Bacteria were then grown on these beads to create the biofilm by taking 20 μL of 0.5 McFarland from the bacterial strains (either MRSA or E. Coli), adding it to 200 μL of nutrient broth in 96-well flat-bottom plates, and placing one bead in cach well. 96-well plates were then sealed tightly with a parafilm and placed in an acrobic shaker (Innova 44 Incubator Shaker) for 72 hours at 37° C. at a speed of 100 rpm. Every 24 hours, 200 μL of fresh media was added to replace the consumed media. […] Biofilm colonies were then counted. […]
The antibiofilm activity of AMP on 72 hours biofilm cultures was tested by treating the biofilm beads with 2000, 1000, 500, 250, 125, and 62.5 μg/mL concentrations of the selected AMP in 96-well plates. […] The antibiofilm activity of the AMP was determined after observing the wells that contained a transparent solution with the naked eye. Subsequently, the antibiofilm activity of the selected AMP was determined using SEM, as described below. […]

Data set [3] deals with Human Fibroblasts (ATCC PCS201010). It is filed as cell-based. The protocol: The cytotoxicity and genotoxicity in vitro effect of the AMP was investigated. Human Fibroblasts (ATCC PCS201010, ThermoFischer Scientific, USA) and cells were seeded at a seeding density of 10,000 Cells/well in 96-well plates using Dulbecco's Modified Eagle Medium (DMEM, Gibco, USA). Media was supplemented with 10% Fetal bovine serum (FBS, Gibco, USA), and penicillin streptomycin (Gibco, USA). Cells were incubated overnight (16-18 hrs) at humidified conditions (5% CO2, 37° C.). Adherent cells were then treated with different concentrations of the AMP (7.8125, 15.625, 62.5, 125, 250, 500, 1000, 2000 μg/ml), and cells were then incubated at humidified conditions for 24 hrs. Then conditioned media was collected at different time points 0, 0.5, 1, 3, 6, 24 hours) and used for measuring Lactate Dehydrogenase (LDH, Thermofischer, USA) following manufacturers' instructions. Adherent cells were used to measure cell viability using AlamarBlue (Invitrogen, USA) following manufacturers' instructions at the following time points 0, 0.5, 1, 3, 6, and 24 hours.

The test system of data set [4] is MRSA biofilm. The class given is cell-based, Methicillin-Resistant Staphylococcus Aureus. As for the experimental part: The first step in creating the biofilm was the selection of borosilicate glass beads 3-4 mm in diameter (ISOLAB Laborgeräte GmbH, Singapore). Then, the selected beads were soaked and cleaned with a soap solution; after that, they were washed with ddH2O, soaked in 80% ethanol for 24 hrs, and then washed properly using sterile water. Bacteria were then grown on these beads to create the biofilm by taking 20 μL of 0.5 McFarland from the bacterial strains (either MRSA or E. Coli), adding it to 200 μL of nutrient broth in 96-well flat-bottom plates, and placing one bead in cach well. 96-well plates were then sealed tightly with a parafilm and placed in an acrobic shaker (Innova 44 Incubator Shaker) for 72 hours at 37° C. at a speed of 100 rpm. Every 24 hours, 200 μL of fresh media was added to replace the consumed media. The beads were then placed in an Eppendorf tube containing 200 μL of nutrient broth and vortexed for 1 min to loosen any attached bacteria. This step was repeated after 24, 48, and 72 hours to observe the density of the biofilm formed on the beads. Then, 100 μL of the solution was serially diluted over ten-fold serial dilutions, and 20 μL of the serial dilution was spread onto fresh nutrient agar media and incubated at 37° C. for 18 hours. Biofilm colonies were then counted. Generated biofilms were used to investigate the selected AMP's ability to inhibit the MRSA and E. coli biofilms.
The antibiofilm activity of AMP on 72 hours biofilm cultures was tested by treating the biofilm beads with 2000, 1000, 500, 250, 125, and 62.5 μg/mL concentrations of the selected AMP in 96-well plates. Plates were then tightly sealed with a parafilm and placed in an acrobic shaker (Innova 44 Incubator Shaker) for 72 hours at 37° C. at a speed of 100 rpm. The antibiofilm activity of the AMP was determined after observing the wells that contained a transparent solution with the naked eye. Subsequently, the antibiofilm activity of the selected AMP was determined using SEM, as described below. […]

The test system of data set [5] is E. coli (ATCC-29522). The class given is cell-based, Escherichia coli. As for the experimental part:
as §1, §2, §3

Data set [6] has as its system human fibroblast cells. Kind of data set: Genotoxicity, oxiselect comet assay. It is filed as cell-based. As for the experimental part:
The genotoxicity effect of the selected AMP was also investigated. In this part, human fibroblast cells were cultured in 24-well plates at a seeding density of 100,000 cells/well; cells were then allowed to adhere and proliferate overnight (16-18 hours). The following day, cells were treated with the AMP (1000 and 2000 μg/ml; negative and positive controls were included in this part, and cells were treated with DMEM and H2O2, respectively. After which, cells were incubated at humidified conditions for 24 hours. Following that, the genotoxicity effect of the AMP was measured using oxiselect comet assay (Abcam, UK) and following the manufacturer's instructions. Images were taken using OLYMPUS BX62, at magnification 40×, attached to an OLYMPUS DP73 digital camera. Image analysis was done using the ImageJ application (OpenComet plugin).

As a reminder, the MBC is the lowest tested concentration that kills the bacteria rather than only halting them. A higher MBC goes with weaker bactericidal potency. In the case of `CC(C)C[C@H](NC(=O)[C@H](CCCNC(=N)N)NC(=O)[C@H](CCCNC(=N)N)NC(=O)[C@H](CCCNC(=N)N)NC(=O)[C@H](Cc1ccccc1)NC(=O)CNC(=O)[C@H](CCCNC(=N)N)NC(=O)[C@H](CS)NC(=O)[C@H](CCCNC(=N)N)NC(=O)CNC(=O)CNC(=O)[C@H](CS)NC(=O)[C@H](Cc1ccccc1)NC(=O)[C@H](C)N)C(=O)N[C@@H](Cc1ccccc1)C(=O)N[C@@H](CS)C(=O)N[C@H](C(=O)N[C@@H](CCCCN)C(=O)N[C@@H](C)C(=O)N[C@@H](CS)C(=O)O)[C@@H](C)O` [AMP] (H-AFCGGRCRGFRRRLFCTKAC-OH; N-terminus and C-terminus assumed), the minimum bactericidal concentration (MBC) worked out at 1000 µg/mL (≈ 433 µM) in data set [1] (ATCC-33591, 24 h) and 1000 µg/mL (≈ 433 µM) in data set [5] (ATCC-29522, 24 h). The antibacterial effect entry in data set [1] (MRSA, 2000, 1000 μg/ml AMP, 24 hours) is given as “biocidal effect”; in data set [5] (E. coli, 2000, 1000 μg/ml AMP, 24 hours) it was “biocidal effect”. The “minimum inhibitory (MIC)” value in data set [1] (MRSA, 24 hours, 37° C., read with the naked eye) was 500 µg/mL; in data set [5] (E. coli, 24 hours, 37° C., read with the naked eye) it was 500 µg/mL. Moreover, the antibiofilm effect result is listed as “inhibit the E. coli biofilm” in data set [2] (E. coli biofilm, only the highest concentration 2000 μg/ml AMP); “eliminate the MRSA biofilm” in data set [4] (MRSA biofilm, 2000, 1000 μg/ml AMP); “totally inhibiting the MRSA biofilm growth” in data set [4] (MRSA biofilm, highest dose 2000 μg/ml AMP). Besides, the MIC/MBC in biofilm in data set [2] (biofilm, 72 h) is 2000 µg/mL (≈ 866 µM); in data set [4] (biofilm, 72 h) it was 1000 µg/mL (≈ 433 µM). The “cellular cytotoxicity (LDH)” value in data set [3] is on record as “no cellular cytotoxicity was detected”. Besides, in data set [6], the “genotoxicity (tail moment)” value is on record as “no significant effect”.

As to `OO` [H2O2, reference compound], the “comet tail / DNA migration” value in data set [6] (human fibroblasts, AMP 2000, 500 μg/ml (figure legend), positive control H2O2) is listed as “extensive DNA migration”.
